Source: patent US5424456A, “N-arylalkylderivatives of 2-aminomethyl-2,3-dihydro-1,4-benzodioxine and the process of preparation thereof” (Vyzkumny Ustav Pro Farmacii A Biochemii s.p., priority 1991, dated 1995)
Read-outs that look alike come from different tables or passages of the source.

Experiments:
blood pressure [1] = assay: Hypotensive activity, pentobarbital anaesthesized rabbits; type: in vivo, rabbit; details: p.o.
From the text: (§1) a) The blood pressure of pentobarbital anaesthesized rabbits was registered invasively in arteria femoralis. The average decrease in systolic (SBP) and diastolic (DBP) blood pressure expressed in per cents of the starting blood pressure level after intravenous and oral administration is shown in Tables 3 and 4.

blood pressure [2] = assay: Hypotensive activity, pentobarbital anaesthesized dogs; type: in vivo, dog
From the text: as §1, with “b) The” for “a) The”, “anaesthesized dogs” for “anaesthesized rabbits”, “(SBP) arid” for “(SBP) and”, “Tables 5” for “Tables 3”, “and 6.” for “and 4.”

α-adrenergic = α-adrenergic blocking activity, postdecapitation muscular contractions in rats; type: in vivo, rat; details: i.v., 4.6 mg/kg, 30 minutes prior to decapitation
Experimental: b) The α-adrenergic blocking activity of compounds VUFB 17951 and VUFB 17959 was also shown in the test of influencing the postdecapitation muscular contractions in rats. The test compounds were administered intravenously in the dose of 4.6 mg/kg for VUFB 17951 and […] for VUFB 17959.

[3] = tested on: rat peripheral venous thrombosis; assay: Antithrombotic activity, rat peripheral venous thrombosis in closed abdominal part of vena cava; type: in vivo; details: rats, read-out: statistically significant effective dose (mass of thrombi)
Experimental: The antithrombotic activity of the test compounds was established using the model of rat peripheral venous thrombosis in a closed abdominal part of vena cava. The thrombus was induced by intravenous administration of hypotonic solution of sodium chloride. The thrombus was freed 10 minutes after induction and weighted. The mass of thrombi in control animals was compared to the mass of thrombi of animals administered by the test compound. The statistically significant effective dose for compound VUFB 17951 was 0.5 mg/kg intravenously and 5 mg/kg orally and for the compound VUFB 17959 0.25 mg/kg and 1.0 mg/kg, respectively. The corresponding dose of a standard (Cilostazol, generic name, Merck index, 11th Edition, 2277) was 25 mg/kg orally.

[4] = 5.0 mg/kg, value 2 of 5 (heads 30/60/120/180 min)
[5] = 5.0 mg/kg, value 3 of 5 (heads 30/60/120/180 min)
[6] = 5.0 mg/kg, value 4 of 5 (heads 30/60/120/180 min)
[7] = 5.0 mg/kg, value 5 of 5 (heads 30/60/120/180 min)
[8] = 10.0 mg/kg, value 1 of 5 (heads 30/60/120/180 min)
[9] = 10.0 mg/kg, value 2 of 5 (heads 30/60/120/180 min)
[10] = 10.0 mg/kg, value 3 of 5 (heads 30/60/120/180 min)
[11] = 10.0 mg/kg, value 4 of 5 (heads 30/60/120/180 min)
[12] = 10.0 mg/kg, value 5 of 5 (heads 30/60/120/180 min)
[13] = i.v., 0.46 mg/kg, value 1 of 5 (heads 5/30/60/180 min; probably 1 min)
[14] = i.v., 0.46 mg/kg, value 2 of 5 (heads 5/30/60/180 min; probably 5 min)
[15] = i.v., 0.46 mg/kg, value 3 of 5 (heads 5/30/60/180 min; probably 30 min)
[16] = i.v., 0.46 mg/kg, value 4 of 5 (heads 5/30/60/180 min; probably 60 min)
[17] = i.v., 0.46 mg/kg, value 5 of 5 (heads 5/30/60/180 min; probably 180 min)
[18] = i.v., 4.6 mg/kg, value 1 of 5 (heads 5/30/60/180 min; probably 1 min)
[19] = i.v., 4.6 mg/kg, value 2 of 5 (heads 5/30/60/180 min; probably 5 min)
[20] = i.v., 4.6 mg/kg, value 3 of 5 (heads 5/30/60/180 min; probably 30 min)
[21] = i.v., 4.6 mg/kg, value 4 of 5 (heads 5/30/60/180 min; probably 60 min)
[22] = i.v., 4.6 mg/kg, value 5 of 5 (heads 5/30/60/180 min; probably 180 min)

## COc1ccc(C(C#N)(CCCNCC2COc3ccccc3O2)C(C)C)cc1OC (racemic) [VUFB 17951, 5-(2,3-Dihydro-1,4-benzodioxin-2-ylmethylamino)-2-(3,4-dimethoxyphenyl)-2-isopropyl valeronitrile]
Blood pressure [1]; 5.0 mg/kg, value 1 of 5 (heads 30/60/120/180 min)
  decrease in systolic blood pressure (SBP): -6 per cents
Blood pressure [1]; [4]
  decrease in diastolic blood pressure (DBP): -12 per cents
  decrease in systolic blood pressure (SBP): -14 per cents
Blood pressure [1]; [5]
  decrease in diastolic blood pressure (DBP): -18 per cents
  decrease in systolic blood pressure (SBP): -17 per cents
Blood pressure [1]; [6]
  decrease in diastolic blood pressure (DBP): -18 per cents
  decrease in systolic blood pressure (SBP): -13 per cents
Blood pressure [1]; [7]
  decrease in diastolic blood pressure (DBP): -18 per cents
  decrease in systolic blood pressure (SBP): -15 per cents
Blood pressure [1]; [8]
  decrease in diastolic blood pressure (DBP): -6 per cents
  decrease in systolic blood pressure (SBP): -5 per cents
Blood pressure [1]; [9]
  decrease in diastolic blood pressure (DBP): -11 per cents
  decrease in systolic blood pressure (SBP): -9 per cents
Blood pressure [1]; [10]
  decrease in diastolic blood pressure (DBP): -18 per cents
  decrease in systolic blood pressure (SBP): -12 per cents
Blood pressure [1]; [11]
  decrease in diastolic blood pressure (DBP): -20 per cents
  decrease in systolic blood pressure (SBP): -13 per cents
Blood pressure [1]; [12]
  decrease in diastolic blood pressure (DBP): -17 per cents
  decrease in systolic blood pressure (SBP): -12 per cents
Blood pressure [2]; [13]
  decrease in diastolic blood pressure (DBP): -52 per cents
  decrease in systolic blood pressure (SBP): -46 per cents
Blood pressure [2]; [14]
  decrease in diastolic blood pressure (DBP): -46 per cents
  decrease in systolic blood pressure (SBP): -47 per cents
Blood pressure [2]; [15]
  decrease in diastolic blood pressure (DBP): -40 per cents
  decrease in systolic blood pressure (SBP): -41 per cents
Blood pressure [2]; [16]
  decrease in diastolic blood pressure (DBP): -36 per cents
  decrease in systolic blood pressure (SBP): -41 per cents
Blood pressure [2]; [17]
  decrease in diastolic blood pressure (DBP): -28 per cents
  decrease in systolic blood pressure (SBP): -26 per cents
Blood pressure [2]; [18]
  decrease in diastolic blood pressure (DBP): -53 per cents
  decrease in systolic blood pressure (SBP): -46 per cents
Blood pressure [2]; [19]
  decrease in diastolic blood pressure (DBP): -49 per cents
  decrease in systolic blood pressure (SBP): -48 per cents
Blood pressure [2]; [20]
  decrease in diastolic blood pressure (DBP): -47 per cents
  decrease in systolic blood pressure (SBP): -42 per cents
Blood pressure [2]; [21]
  decrease in diastolic blood pressure (DBP): -42 per cents
  decrease in systolic blood pressure (SBP): -40 per cents
Blood pressure [2]; [22]
  decrease in diastolic blood pressure (DBP): -34 per cents
  decrease in systolic blood pressure (SBP): -31 per cents
Blood pressure [2]; p.o., 4.6 mg/kg, 15 min
  decrease in diastolic blood pressure (DBP): -9 per cents
  decrease in systolic blood pressure (SBP): -9 per cents
Blood pressure [2]; p.o., 4.6 mg/kg, 30 min
  decrease in diastolic blood pressure (DBP): -11 per cents
  decrease in systolic blood pressure (SBP): -11 per cents
Blood pressure [2]; p.o., 4.6 mg/kg, 60 min
  decrease in diastolic blood pressure (DBP): -13 per cents
  decrease in systolic blood pressure (SBP): -14 per cents
Blood pressure [2]; p.o., 4.6 mg/kg, 120 min
  decrease in diastolic blood pressure (DBP): -14 per cents
  decrease in systolic blood pressure (SBP): -19 per cents
Blood pressure [2]; p.o., 4.6 mg/kg, 300 min
  decrease in diastolic blood pressure (DBP): -19 per cents
  decrease in systolic blood pressure (SBP): -24 per cents
α-adrenergic
  decrease in number of postdecapitation contractions: highly significant decrease in number of postdecapitation contractions
[3]; iv, intravenously
  minimal effective dose: 0.5 mg/kg
[3]; po, orally
  minimal effective dose: 5 mg/kg
